Results as given in PubChem BioAssay AID248 (DTP/NCI, 2004).
“And” between values parts separate entries of the source, which are not always exact repeats. Equal values may be shown once. Inconclusive results and toxic doses are left out. Cut-off read from the data, not from the text of the source: active = T/C of 150% or more; inactive = T/C below 125%.

Test system: L1210 leukemia ip in BDF1 mice, survival T/C
Test: NCI In Vivo Anticancer Drug Screen. Data for tumor model L1210 Leukemia (intraperitoneal) in B6D2F1 (BDF1) mice
Conditions: endpoint: mean survival time, higher = longer survival
Method in brief: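 Tumor was transplanted into mice, which were then dosed with test compound or vehicle alone. Survival was recorded for each group, and the treated figure was expressed relative to the control figure.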

[1] = dose: 50.0 mg/kg/injection, schedule: Q01DX009 (ip), vehicle: Klucel (hydroxypropylcellulose) (HPC)
[2] = dose: 100.0 mg/kg/injection, schedule: Q01DX009 (ip), vehicle: Klucel (hydroxypropylcellulose) (HPC)
[3] = dose: 200.0 mg/kg/injection, schedule: Q01DX009 (ip), vehicle: Klucel (hydroxypropylcellulose) (HPC)
[4] = dose: 100.0 mg/kg/injection, schedule: Q01DX001 (ip), vehicle: saline
[5] = dose: 200.0 mg/kg/injection, schedule: Q01DX001 (ip), vehicle: saline
[6] = dose: 400.0 mg/kg/injection, schedule: Q01DX001 (ip), vehicle: saline
[7] = dose: 25.0 mg/kg/injection, schedule: Q01DX009 (ip), vehicle: saline with Tween-80
[8] = dose: 50.0 mg/kg/injection, schedule: Q01DX009 (ip), vehicle: saline with Tween-80
[9] = dose: 100.0 mg/kg/injection, schedule: Q04DX003 (ip), vehicle: saline with Tween-80
[10] = dose: 200.0 mg/kg/injection, schedule: Q04DX003 (ip), vehicle: saline with Tween-80
[11] = dose: 400.0 mg/kg/injection, schedule: Q04DX003 (ip), vehicle: saline with Tween-80

Measured: T/C

Nc1ncnc2c1ncn2C1OC(COP(=O)(O)OP(=O)(O)OCC2OC([n+]3cccc(C=O)c3)C(O)C2O)C(O)C1O (stereo unspecified)
inactive: dose: 80.0 mg/kg/injection, schedule: Q01DX Z (ip), vehicle: saline 95 % of control | dose: 120.0 mg/kg/injection, schedule: Q01DX Z (ip), vehicle: saline 90 % of control | dose: 180.0 mg/kg/injection, schedule: Q01DX Z (ip), vehicle: saline 97 % of control | dose: 270.0 mg/kg/injection, schedule: Q01DX Z (ip), vehicle: saline 101 % of control

COC(=O)c1ccccc1NC(=O)Nc1cc([N+](=O)[O-])ccc1OC
inactive: [1] 90 % of control | [2] 97 % of control | [3] 108 % of control

CN(NC(=O)CC(=O)NN(C)C(=S)c1ccccc1)C(=S)c1ccccc1
inactive: dose: 25.0 mg/kg/injection, schedule: Q01DX009 (ip), vehicle: gum acacia 109 % of control | dose: 50.0 mg/kg/injection, schedule: Q01DX009 (ip), vehicle: gum acacia 104 % of control | dose: 100.0 mg/kg/injection, schedule: Q01DX009 (ip), vehicle: gum acacia 100 % of control and 92 % of control | dose: 100.0 mg/kg/injection, schedule: Q04DX003 (ip), vehicle: gum acacia 90 % of control | dose: 200.0 mg/kg/injection, schedule: Q04DX003 (ip), vehicle: gum acacia 97 % of control | dose: 400.0 mg/kg/injection, schedule: Q04DX003 (ip), vehicle: gum acacia 92 % of control

O=C1C2CCCC3CCCC(C(=O)N1O)C32 (stereo unspecified)
inactive: dose: 100.0 mg/kg/injection, schedule: Q04DX002 (ip), vehicle: saline with Tween-80 104 % of control | dose: 200.0 mg/kg/injection, schedule: Q04DX002 (ip), vehicle: saline with Tween-80 99 % of control | dose: 400.0 mg/kg/injection, schedule: Q04DX002 (ip), vehicle: saline with Tween-80 86 % of control

Cc1ccc(S(=O)(=O)N/N=C2/C(=O)C3CCC2C3)cc1 (stereo unspecified)
inactive: dose: 50.0 mg/kg/injection, schedule: Q01DX001 (ip), vehicle: saline with Tween-80 92 % of control | dose: 100.0 mg/kg/injection, schedule: Q01DX001 (ip), vehicle: saline with Tween-80 92 % of control | dose: 200.0 mg/kg/injection, schedule: Q01DX001 (ip), vehicle: saline with Tween-80 87 % of control

O/N=C1/CCCCc2ccccc21
inactive: [4] 105 % of control | [5] 110 % of control | [6] 96 % of control

OC1CSC1.[Cl][Hg][Cl]
inactive: dose: 5.0 mg/kg/injection, schedule: Q01DX001 (ip), vehicle: carboxymethylcellulose (CMC) 94 % of control | dose: 10.0 mg/kg/injection, schedule: Q01DX001 (ip), vehicle: carboxymethylcellulose (CMC) 100 % of control | dose: 20.0 mg/kg/injection, schedule: Q01DX001 (ip), vehicle: carboxymethylcellulose (CMC) 91 % of control

FC(F)(F)c1cccc(NC(=S)NCc2ccco2)c1
inactive: [2] 90 % of control | [3] 93 % of control | dose: 400.0 mg/kg/injection, schedule: Q01DX009 (ip), vehicle: Klucel (hydroxypropylcellulose) (HPC) 96 % of control

Nc1ccc(C(=O)CC(O)(C(F)(F)F)C(F)(F)F)cc1
inactive: [7] 92 % of control | [8] 94 % of control | dose: 100.0 mg/kg/injection, schedule: Q01DX009 (ip), vehicle: saline with Tween-80 100 % of control and 92 % of control | dose: 200.0 mg/kg/injection, schedule: Q01DX009 (ip), vehicle: saline with Tween-80 95 % of control

Sc1ccc2ccccc2c1CN(Cc1ccccc1)Cc1c(S)ccc2ccccc12
inactive: [4] 91 % of control | [5] 90 % of control | [6] 91 % of control

c1cc[c]([Pb]([c]2ccccc2)([c]2ccccc2)[n]2cnc3cncnc32)cc1
inactive: dose: 5.0 mg/kg/injection, schedule: Q01DX001 (ip), vehicle: other 103 % of control | dose: 10.0 mg/kg/injection, schedule: Q01DX001 (ip), vehicle: other 95 % of control

COc1cc2cc3c4ccccc4cc[n+]3c(C)c2cc1OC (tested in a mixture with another compound)
inactive: dose: 2.5 mg/kg/injection, schedule: Q01DX009 (ip), vehicle: saline 102 % of control | dose: 5.0 mg/kg/injection, schedule: Q01DX009 (ip), vehicle: saline 110 % of control | dose: 10.0 mg/kg/injection, schedule: Q01DX009 (ip), vehicle: saline 115 % of control | dose: 20.0 mg/kg/injection, schedule: Q01DX009 (ip), vehicle: saline 121 % of control | dose: 40.0 mg/kg/injection, schedule: Q01DX009 (ip), vehicle: saline 118 % of control

CCCCOC(=O)Nc1ccc(OCC)cc1
inactive: [4] 107 % of control | [5] 95 % of control | [6] 93 % of control

COc1ccc([N+](=O)[O-])cc1NC(=O)Oc1ccc(F)cc1
inactive: [1] 100 % of control | [2] 92 % of control | [3] 96 % of control

CC(C)CC(NS(=O)(=O)Cc1ccccc1)C(=O)NNc1ccccc1 (stereo unspecified)
inactive: dose: 100.0 mg/kg/injection, schedule: Q01DX001 (ip), vehicle: other 97 % of control | dose: 100.0 mg/kg/injection, schedule: Q04DX003 (ip), vehicle: other 95 % of control | dose: 200.0 mg/kg/injection, schedule: Q01DX001 (ip), vehicle: other 94 % of control | dose: 200.0 mg/kg/injection, schedule: Q04DX003 (ip), vehicle: other 91 % of control | dose: 400.0 mg/kg/injection, schedule: Q01DX001 (ip), vehicle: other 92 % of control

O=C(Cc1ccc2c(c1)OCO2)c1cn(C(=O)Cc2ccc3c(c2)OCO3)c2ccccc12
inactive: dose: 50.0 mg/kg/injection, schedule: Q01DX001 (ip), vehicle: saline 108 % of control | [4] 102 % of control | [5] 93 % of control | [6] 96 % of control

O=C1C(=O)C2(O)C(=O)C12O (stereo unspecified)
inactive: dose: 100.0 mg/kg/injection, schedule: Q04DX003 (ip), vehicle: saline 91 % of control

N=C(N)Sc1n[nH]c(=O)[nH]c1=O
inactive: dose: 75.0 mg/kg/injection, schedule: Q01DX001 (ip), vehicle: alcohol 100 % of control | dose: 150.0 mg/kg/injection, schedule: Q01DX001 (ip), vehicle: alcohol 90 % of control

C/C=C/CNc1ccc(C)cc1
inactive: [7] 102 % of control | dose: 25.0 mg/kg/injection, schedule: Q04DX003 (ip), vehicle: saline with Tween-80 97 % of control | [8] 97 % of control | dose: 50.0 mg/kg/injection, schedule: Q04DX003 (ip), vehicle: saline with Tween-80 90 % of control | [9] 101 % of control

NC(=O)N/N=C/c1[nH]c(=S)[nH]c(=O)c1Cc1ccccc1
inactive: [9] 101 % of control | [10] 94 % of control | [11] 97 % of control

O=C1CCc2ccccc2C(=O)C1c1ccc(Cl)cc1 (stereo unspecified)
inactive: [9] 90 % of control | [10] 97 % of control | [11] 93 % of control
